Patent publication US10208021B2, “Substituted tetrahydroisoquinoline compounds as factor XIa inhibitors” (BRISTOL-MYERS SQUIBB COMPANY, priority 2011, dated 2019)
Counter-ions that a name gives are not always drawn.

Target: purified human Factor XIa (Homo sapiens (Human), UniProt P03951)
Assay: Factor XIa chromogenic substrate (S-2366) inhibition assay
Format: biochemical
Description: The effectiveness of compounds of the present invention as inhibitors of the coagulation factors XIa, VIIa, IXa, Xa, XIIa, plasma kallikrein or thrombin, can be determined using a relevant purified serine protease, respectively, and an appropriate synthetic substrate. The rate of hydrolysis of the chromogenic or fluorogenic substrate by the relevant serine protease was measured both in the absence and presence of compounds of the present invention. […] A decrease in the rate of absorbance or fluorescence change in the presence of inhibitor is indicative of enzyme inhibition. Such methods are known to one skilled in the art. The results of this assay are expressed as the inhibitory constant, Ki. […] JT Baker or Fisher Scientific). […] Values of Ki were determined by allowing the protease to react with the substrate in the presence of the inhibitor. Reactions were allowed to go for periods of 20-180 minutes (depending on the protease) and the velocities (rate of absorbance or fluorescence change versus time) were measured.

[1] = substrate S-2366, activity ranges, Table A

Chain of purified human Factor XIa (P03951 388-625): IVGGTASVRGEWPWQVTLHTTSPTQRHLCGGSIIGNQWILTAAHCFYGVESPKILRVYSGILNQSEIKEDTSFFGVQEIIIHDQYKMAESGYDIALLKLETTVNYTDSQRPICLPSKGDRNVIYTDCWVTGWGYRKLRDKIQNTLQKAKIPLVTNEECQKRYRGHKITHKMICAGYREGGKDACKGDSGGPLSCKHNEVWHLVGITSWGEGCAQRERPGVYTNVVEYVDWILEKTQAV
Chain of purified human Factor XIa (P03951 19-387 partner): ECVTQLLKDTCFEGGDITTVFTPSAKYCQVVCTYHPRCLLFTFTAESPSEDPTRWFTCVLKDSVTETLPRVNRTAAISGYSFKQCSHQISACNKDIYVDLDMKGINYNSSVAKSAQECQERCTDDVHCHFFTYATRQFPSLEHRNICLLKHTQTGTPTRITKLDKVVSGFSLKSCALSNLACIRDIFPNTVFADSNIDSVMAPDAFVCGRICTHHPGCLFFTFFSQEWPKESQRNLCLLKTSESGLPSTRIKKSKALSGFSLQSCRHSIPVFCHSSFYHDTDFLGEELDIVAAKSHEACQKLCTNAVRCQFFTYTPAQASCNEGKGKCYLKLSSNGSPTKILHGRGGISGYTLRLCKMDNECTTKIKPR

Ki [1] [nM] | Ki (substrate S-2366, Table 1) [nM] | SMILES
5 to 10 |  | O=C(O)c1ccc(NC(=O)C2c3cccc(N4CCC(N5CCCC5)CC4)c3CCN2C(=O)C=Cc2c(-n3cnnn3)ccc(Cl)c2F)cc1 (centres unmarked) [Example 88]
< 5 |  | CC(=O)c1ccc(Cl)c(F)c1/C=C/C(=O)N1CCc2c(cccc2N2CCC(N3CCCC3)CC2)C1C(=O)Nc1ccc(C(=O)O)cc1 (racemic) [Example 154]
5 to 10 |  | CCOC(=O)c1ccc(NC(=O)C2c3cccc(N4CCOCC4=O)c3CCN2C(=O)/C=C/c2c(-n3cnnn3)ccc(Cl)c2F)cc1 (racemic) [Example 51]
< 5 |  | CC(C)(C)OC(=O)c1ccc(NC(=O)C2c3cccc(N4CCC(N5CCCC5)CC4)c3CCN2C(=O)/C=C/c2c(-n3cnnn3)ccc(Cl)c2F)cc1 (racemic) [Example 84]
5 to 10 |  | CCOC(=O)c1ccc(NC(=O)C2c3cccc(N4CCC(N5CCCC5)CC4)c3CCN2C(=O)C=Cc2c(C#N)ccc(Cl)c2F)cc1 (centres unmarked) [Example 166]
 | 844 | CC1(C)Cc2c(cccc2N2CCCCC2)[C@H](C(=O)Nc2ccc(C(=O)O)cc2)N1C(=O)/C=C/c1c(-n2cnnn2)ccc(Cl)c1F [Example 196]
< 5 |  | CCOC(=O)C1CCN(c2cccc3c2CCN(C(=O)/C=C/c2c(-n4cnnn4)ccc(Cl)c2F)C3C(=O)Nc2ccc(C(=O)O)cc2)CC1 (racemic) [Example 136]
 | < 5 | N#Cc1ccc(Cl)c(F)c1/C=C/C(=O)N1CCc2c(cccc2N2CCC(N3CCCC3)CC2)C1C(=O)Nc1ccc(C(=O)O)cc1 (racemic) [Example 155]
 | 955 | CC(=O)c1ccc(Cl)c(F)c1/C=C/C(=O)N1CCc2c(cccc2N2CCS(=O)(=O)CC2)[C@@H]1C(=O)Nc1ccc(C(=O)O)cc1 [Example 216]
< 5 |  | CC(=O)c1ccc(Cl)c(F)c1/C=C/C(=O)N1CCc2c(cccc2N2CCN(C)CC2)C1C(=O)Nc1ccc(C(=O)O)cc1 (centres unmarked) [Example 79, (E)-4-(2-(3-(6-acetyl-3-chloro-2-fluorophenyl)acryloyl)-5-(4-methylpiperazin-1-yl)-1,2,3,4-tetrahydroisoquinoline-1-carboxamido)benzoic acid, bis-TFA Salt]
5 to 10 |  | CCOC(=O)c1ccc(NC(=O)[C@@H]2c3cccc(N4CCCCC4=O)c3CCN2C(=O)/C=C/c2c(-n3cnnn3)ccc(Cl)c2F)cc1 [compound 45]
< 5 |  | CCOC(=O)c1cc(C)n(-c2cccc3c2CCN(C(=O)/C=C/c2c(-n4cnnn4)ccc(Cl)c2F)C3C(=O)Nc2ccc(C(=O)O)cc2)n1 (centres unmarked) [Example 241, (E)-4-(2-(3-(3-Chloro-2-fluoro-6-(1H-tetrazol-1-yl)phenyl)acryloyl)-5-(3-(ethoxycarbonyl)-5-methyl-1H-pyrazol-1-yl)-1,2,3,4-tetrahydroisoquinoline-1-carboxamido)benzoic acid]
5 to 10 |  | CCOC(=O)c1ccc(NC(=O)[C@@H]2c3cccc(N4CCNCC4=O)c3CCN2C(=O)/C=C/c2c(-n3cnnn3)ccc(Cl)c2F)cc1 [Example 190]
< 5 |  | CC(C)COC(=O)c1ccc(NC(=O)C2c3cccc(N4CCC(N5CCCC5)CC4)c3CCN2C(=O)/C=C/c2c(-n3cnnn3)ccc(Cl)c2F)cc1 (racemic) [Example 123]
< 5 |  | O=C(O)c1ccc(NC(=O)C2c3cccc(N4CCCNCC4)c3CCN2C(=O)C=Cc2c(-n3cnnn3)ccc(Cl)c2F)cc1 (centres unmarked) [Example 260]
< 5 |  | CC(=O)c1ccc(Cl)c(F)c1/C=C/C(=O)N1CCc2c(cccc2N2CCC(C(=O)N(C)C)CC2)[C@H]1C(=O)Nc1ccc(C(=O)O)cc1 [Example 219]
 | 632 | COC(=O)Nc1ccc(NC(=O)C2c3cccc(N4CCC(N5CCCC5)CC4)c3CCN2C(=O)C=Cc2c(-n3cnnn3)ccc(Cl)c2F)cc1 (centres unmarked) [Example 98]
< 5 |  | CCOC(=O)c1ccc(NC(=O)[C@@H]2c3cccc(N4CCC(C(=O)N5CCCC5)CC4)c3CCN2C(=O)/C=C/c2c(-n3cnnn3)ccc(Cl)c2F)cc1 [Example 135]
 | < 5 | CCOC(=O)c1ccc(NC(=O)C2c3cccc(N4CCC(N5CCCC5)CC4)c3CCN2C(=O)C=Cc2c(-n3cnnn3)ccc(Cl)c2F)cc1 (centres unmarked) [Example 94]
< 5 |  | CN(C)C(=O)C1CCN(c2cccc3c2CCN(C(=O)/C=C/c2c(-n4cnnn4)ccc(Cl)c2F)C3C(=O)Nc2ccc(C(=O)O)cc2)CC1 (racemic) [Example 100]
100 to 500 |  | CC1(C)Cc2c(cccc2N2CCOCC2)[C@H](C(=O)Nc2ccc(C(=O)O)cc2)N1C(=O)/C=C/c1c(-n2cnnn2)ccc(Cl)c1F [Example 200]
< 5 |  | O=C(Nc1ccc(F)cc1)C1c2cccc(N3CCC(N4CCCC4)CC3)c2CCN1C(=O)C=Cc1c(-n2cnnn2)ccc(Cl)c1F (centres unmarked) [Example 86]
5 to 10 |  | CCOC(=O)c1ccc(NC(=O)C2c3cccc(N4CCN(C)CC4)c3CCN2C(=O)C=Cc2c(-n3cnnn3)ccc(Cl)c2F)cc1 (centres unmarked) [compound 29]
100 to 500 |  | O=C(O)CCNC(=O)C1c2cccc(N3CCC(N4CCCC4)CC3)c2CCN1C(=O)/C=C/c1c(-n2cnnn2)ccc(Cl)c1F (racemic) [Example 231]

Ki [1] [nM] | Ki (substrate S-2366, Table 1) [nM] | SMILES
 | 10.3 | COC(=O)Nc1ccc(NC(=O)C2c3cccc(N4CCNCC4)c3CCN2C(=O)/C=C/c2c(-n3cnnn3)ccc(Cl)c2F)cc1 (centres unmarked) [Example 4]
100 to 500 |  | O=C(NCCc1c[nH]cn1)c1ccc(NC(=O)C2c3cccc(N4CCNCC4)c3CCN2C(=O)/C=C/c2cc(Cl)c(F)cc2-n2cnnn2)cc1 (racemic) [Example 68]
< 5 |  | O=C(O)c1ccc(NC(=O)C2c3cccc(N4CCCNCC4)c3CCN2C(=O)/C=C/c2c(-n3cnnn3)ccc(Cl)c2F)cc1 (racemic) [Example 256]
 | 517 | CCOC(=O)c1ccc(NC(=O)C2c3cccc(N4CCC(N5CCCC5)CC4)c3CCN2C(=O)C=Cc2c(C(C)=O)ccc(Cl)c2F)cc1 (centres unmarked) [Example 169]
< 5 |  | O=C(O)c1ccc(NC(=O)C2c3cccc(N4CCC(N5CCCCC5=O)CC4)c3CCN2C(=O)/C=C/c2c(-n3cnnn3)ccc(Cl)c2F)cc1 (racemic) [Example 130]
 | < 5 | COC(=O)c1ccc(NC(=O)C2c3cccc(N4CCC(N5CCCC5)CC4)c3CCN2C(=O)/C=C/c2c(C(C)=O)ccc(Cl)c2F)cc1 (racemic) [Example 175]
< 5 |  | O=C(Nc1ccc(Cl)cc1)C1c2cccc(N3CCC(N4CCCC4)CC3)c2CCN1C(=O)/C=C/c1c(-n2cnnn2)ccc(Cl)c1F (racemic) [Example 104]
500 to 5000 |  | NC(=O)CCNC(=O)c1ccc(NC(=O)C2c3cccc(N4CCNCC4)c3CCN2C(=O)/C=C/c2cc(Cl)c(F)cc2-n2cnnn2)cc1 (racemic) [Example 73]
100 to 500 |  | CC(=O)Nc1ccc(NC(=O)c2ccc(NC(=O)C3c4cccc(N5CCNCC5)c4CCN3C(=O)/C=C/c3cc(Cl)c(F)cc3-n3cnnn3)cc2)cc1 (racemic) [Example 70]
100 to 500 |  | CN1CCN(c2cccc3c2CCN(C(=O)C=Cc2c(-n4cnnn4)ccc(Cl)c2F)C3C(=O)Nc2ccc(C(=O)O)cc2)CC1 (centres unmarked) [compound 30]
< 5 |  | CCOC(=O)c1ccc(NC(=O)C2c3cccc(N4CCC(C(=O)N5CCCC5)CC4)c3CCN2C(=O)/C=C/c2c(-n3cnnn3)ccc(Cl)c2F)cc1 (racemic) [Example 134]
< 5 |  | NC1CCN(c2cccc3c2CCN(C(=O)/C=C/c2c(-n4cnnn4)ccc(Cl)c2F)C3C(=O)Nc2ccc(C(=O)O)cc2)CC1 (racemic) [Example 97]
< 5 |  | CNC(=O)N1CCCN(c2cccc3c2CCN(C(=O)/C=C/c2c(-n4cnnn4)ccc(Cl)c2F)C3C(=O)Nc2ccc(C(=O)O)cc2)CC1 (racemic) [Example 259]
< 5 |  | CN1CCN(c2cccc3c2CCN(C(=O)/C=C/c2c(-n4cnnn4)ccc(Cl)c2F)C3C(=O)Nc2ccc(C(=O)O)cc2)CCC1=O (racemic) [Example 264]
5 to 10 |  | O=C(O)c1ccc(NC(=O)C2c3cccc(N4CCC(N5CCCC5)CC4)c3CCN2C(=O)/C=C/c2ccccc2F)cc1 (racemic) [Example 181]
< 5 |  | O=C(O)c1ccc(NC(=O)C2c3cccc(N4CCC(N5CCCC5)CC4)c3CCN2C(=O)C=Cc2c(-n3cnnn3)ccc(Cl)c2F)cc1 (centres unmarked) [Example 87]
 | 314 | O=C(Nc1ccc(F)cc1)C1c2cccc(N3CCC(N4CCCC4)CC3)c2CCN1C(=O)C=Cc1c(-n2cnnn2)ccc(Cl)c1F (centres unmarked) [Example 90]
5 to 10 |  | O=C(O)c1ccc(NC(=O)C2c3cccc(N4CCC(N5CCCC5)CC4)c3CCN2C(=O)/C=C/c2cccc(Cl)c2)cc1 (racemic) [Example 156]
 | 2570 | CC(C)(C)OC(=O)c1ccc(NC(=O)C2c3cccc(N4CCCN(C(=O)OC(C)(C)C)CC4)c3CCN2C(=O)/C=C/c2c(-n3cnnn3)ccc(Cl)c2F)cc1 (racemic) [Example 257]
 | 5640 | O=C(O)c1ccc(NC(=O)[C@H]2c3cccc(N4CCCCC4=O)c3CCN2C(=O)/C=C/c2cc(Cl)c(F)cc2-n2cnnn2)cc1 [compound 41]
< 5 |  | CC(C)OC(=O)c1ccc(NC(=O)C2c3cccc(N4CCC(N5CCCC5)CC4)c3CCN2C(=O)/C=C/c2c(-n3cnnn3)ccc(Cl)c2F)cc1 (racemic) [Example 122]
< 5 |  | O=C(O)c1ccc(NC(=O)C2c3cccc(N4CCC(N5CCCC5)CC4)c3CCN2C(=O)/C=C/c2c(C(F)(F)F)ccc(Cl)c2F)cc1 (racemic) [Example 176]
< 5 |  | CCOC(=O)c1ccc(NC(=O)[C@@H]2c3cccc(N4CCC(N(C)C)CC4)c3CCN2C(=O)/C=C/c2c(-n3cnnn3)ccc(Cl)c2F)cc1 [Example 129]
< 5 |  | CC1(C)Cc2c(cccc2N2CCOCC2)[C@@H](C(=O)Nc2ccc(C(=O)O)cc2)N1C(=O)/C=C/c1c(-n2cnnn2)ccc(Cl)c1F [Example 199]

SMILES | Ki [1] [nM] | Ki (substrate S-2366, Table 1) [nM]
O=C(Nc1ccc(F)cc1)C1c2cccc(N3CCNCC3)c2CCN1C(=O)/C=C/c1cc(Cl)ccc1-n1cnnn1 (centres unmarked) [Example 2] | 100 to 500 | 
CC(C)(C)OC(=O)c1ccc(NC(=O)C2c3cccc(N4CCNCC4)c3CCN2C(=O)/C=C/c2c(-n3cnnn3)ccc(Cl)c2F)cc1 (centres unmarked) [Example 7] |  | 49.7
